Measured values as given in PubChem BioAssay AID248 (DTP/NCI, 2004).
“And” between values parts separate entries of the source, which are not always exact repeats. Identical values can stand only once. Toxic doses and inconclusive results are not listed.

System: L1210 leukemia ip in BDF1 mice, survival T/C
Experiment: NCI In Vivo Anticancer Drug Screen. Data for tumor model L1210 Leukemia (intraperitoneal) in B6D2F1 (BDF1) mice
Details: endpoint: mean survival time, higher = longer survival
Method in brief: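 Value reflects the ratio of survival in compound-treated mice to survival in vehicle-treated controls, with both groups carrying the same transplanted tumor.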

In the case of `N=[N+]=CC(=O)CCC(NC(=O)C(CCC(=O)C=[N+]=N)NC(=O)CCC(N)C(=O)O)C(=O)O` (stereo unspecified), the T/C (dose: 8.0 mg/kg/injection, schedule: Q02DX005 (oral), vehicle: other) is reported as 200 % of control, the T/C (dose: 10.0 mg/kg/injection, schedule: Q02DX008 (ip), vehicle: other) is reported as 117 % of control and the T/C (dose: 10.0 mg/kg/injection, schedule: Q02DX008 (oral), vehicle: other) is reported as 166 % of control. For the same molecule, the T/C (dose: 10.0 mg/kg/injection, schedule: Q04DX003 (ip), vehicle: other) was 155 % of control and 173 % of control, the T/C (dose: 10.0 mg/kg/injection, schedule: Q04DX003 (ip), vehicle: saline) was 192 % of control and the T/C (dose: 10.0 mg/kg/injection, schedule: Q04DX003 (ip), vehicle: water) was 167 % of control. For the same molecule, the T/C (dose: 12.5 mg/kg/injection, schedule: Q01DX001 (ip), vehicle: clinical formulation) was 112 % of control, the T/C (dose: 12.5 mg/kg/injection, schedule: Q01DX001 (ip), vehicle: saline) was 119 % of control and 122 % of control and the T/C (dose: 12.5 mg/kg/injection, schedule: Q03HX024 (ip), vehicle: water) was 97 % of control. For the same molecule, the T/C (dose: 15.0 mg/kg/injection, schedule: Q02DX008 (oral), vehicle: other) was 104 % of control, the T/C (dose: 15.0 mg/kg/injection, schedule: Q## X003 (ip), vehicle: water) was 185 % of control and the T/C (dose: 20.0 mg/kg/injection, schedule: Q02DX008 (oral), vehicle: other) was 116 % of control. The T/C (dose: 20.0 mg/kg/injection, schedule: Q04DX003 (ip), vehicle: other) was 166 % of control, the T/C (dose: 20.0 mg/kg/injection, schedule: Q04DX003 (ip), vehicle: saline) was 188 % of control and the T/C (dose: 20.0 mg/kg/injection, schedule: Q04DX003 (ip), vehicle: water) was 167 % of control and 171 % of control. The T/C (dose: 20.0 mg/kg/injection, schedule: Q## X006 (ip), vehicle: water) was 156 % of control, the T/C (dose: 25.0 mg/kg/injection, schedule: Q01DX001 (ip), vehicle: clinical formulation) was 123 % of control and the T/C (dose: 25.0 mg/kg/injection, schedule: Q07DX002 (ip), vehicle: water) was 156 % of control and 167 % of control. For the same molecule, the T/C (dose: 30.0 mg/kg/injection, schedule: Q04DX003 (ip), vehicle: other) was 202 % of control, the T/C (dose: 30.0 mg/kg/injection, schedule: Q## X003 (ip), vehicle: water) was 209 % of control and the T/C (dose: 40.0 mg/kg/injection, schedule: Q04DX003 (ip), vehicle: saline) was 170 % of control. The T/C (dose: 40.0 mg/kg/injection, schedule: Q04DX003 (ip), vehicle: water) was 200 % of control and 206 % of control, the T/C (dose: 40.0 mg/kg/injection, schedule: Q## X003 (ip), vehicle: water) was 194 % of control and the T/C (dose: 40.0 mg/kg/injection, schedule: Q## X006 (ip), vehicle: water) was 188 % of control. For the same molecule, the T/C (dose: 50.0 mg/kg/injection, schedule: Q01DX001 (ip), vehicle: saline) was 150 % of control, the T/C (dose: 50.0 mg/kg/injection, schedule: Q01DX001 (ip), vehicle: water) was 111 % of control and the T/C (dose: 50.0 mg/kg/injection, schedule: Q07DX002 (ip), vehicle: other) was 158 % of control. For the same molecule, the T/C (dose: 50.0 mg/kg/injection, schedule: Q## X003 (ip), vehicle: water) was 178 % of control, the T/C (dose: 60.0 mg/kg/injection, schedule: Q04DX003 (ip), vehicle: water) was 195 % of control and the T/C (dose: 60.0 mg/kg/injection, schedule: Q## X003 (ip), vehicle: water) was 185 % of control. The T/C (dose: 60.0 mg/kg/injection, schedule: Q## X006 (ip), vehicle: water) was 115 % of control, the T/C (dose: 75.0 mg/kg/injection, schedule: Q07DX002 (ip), vehicle: water) was 192 % of control and the T/C (dose: 80.0 mg/kg/injection, schedule: Q04DX003 (ip), vehicle: saline) was 100 % of control. The T/C (dose: 80.0 mg/kg/injection, schedule: Q04DX003 (ip), vehicle: water) was 159 % of control, the T/C (dose: 80.0 mg/kg/injection, schedule: Q## X006 (ip), vehicle: water) was 115 % of control and the T/C (dose: 100.0 mg/kg/injection, schedule: Q01DX001 (ip), vehicle: clinical formulation) was 153 % of control. For the same molecule, the T/C (dose: 100.0 mg/kg/injection, schedule: Q07DX002 (ip), vehicle: other) was 171 % of control, the T/C (dose: 100.0 mg/kg/injection, schedule: Q07DX002 (ip), vehicle: water) was 194 % of control and the T/C (dose: 150.0 mg/kg/injection, schedule: Q07DX002 (ip), vehicle: water) was 194 % of control. The T/C (dose: 200.0 mg/kg/injection, schedule: Q01DX001 (ip), vehicle: other) was 158 % of control, the T/C (dose: 200.0 mg/kg/injection, schedule: Q01DX001 (ip), vehicle: saline) was 96 % of control and the T/C (dose: 200.0 mg/kg/injection, schedule: Q01DX001 (ip), vehicle: water) was 109 % of control. For the same molecule, the T/C (dose: 200.0 mg/kg/injection, schedule: Q01DX001 (oral), vehicle: other) was 155 % of control, the T/C (dose: 250.0 mg/kg/injection, schedule: Q01DX001 (ip), vehicle: water) was 117 % of control and the T/C (dose: 300.0 mg/kg/injection, schedule: Q01DX001 (ip), vehicle: other) was 101 % of control. For the same molecule, the T/C (dose: 300.0 mg/kg/injection, schedule: Q01DX001 (ip), vehicle: water) was 96 % of control and 106 % of control.
